Test results taken from US6737383B1, “Herbicidal oxadiazolidines” (priority 1999, dated 2004).

Columns and labels:
wild oat = test: Test B pre/postemergence wild oat; format: in vivo, Avena fatua
Method in brief: (§1)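 Response is a visual 0-to-10 score relative to untreated plants, where 0 means no effect and 10 means complete control, taken twelve to sixteen days after application. Treatments went onto soil at planting and onto foliage of 1- to 4-leaf plants, using a surfactant-containing non-phytotoxic solvent.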

crabgrass = test: Test B pre/postemergence crabgrass; format: in vivo, Digitaria sanguinalis
Method in brief: as §1

cocklebur = test: Test B pre/postemergence cocklebur; format: in vivo, Xanthium strumarium
Method in brief: as §1

smallflower flatsedge = test: Test B flood test smallflower flatsedge; format: in vivo, Cyperus difformis
Method in brief: (§2)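 Each value is a visual injury score relative to controls, with 10 meaning complete control and 0 no effect. Evaluation took place twelve to sixteen days after the 2-leaf-stage plants were treated and kept in the greenhouse.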

bedstraw = test: Test B pre/postemergence bedstraw; format: in vivo, Galium aparine
Method in brief: as §1

pigweed = test: Test B pre/postemergence pigweed; format: in vivo, Amaranthus retroflexus
Method in brief: as §1

velvetleaf = test: Test B pre/postemergence velvetleaf; format: in vivo, Abutilon theophrasti
Method in brief: as §1

rice = test: Test B flood test rice; format: in vivo, Oryza sativa
Method in brief: as §2

surinam grass = test: Test B pre/postemergence surinam grass; format: in vivo, Brachiaria decumbens
Method in brief: as §1

morningglory = test: Test B pre/postemergence morningglory; format: in vivo, Ipomoea hederacea
Method in brief: as §1

bamyardgrass = test: Test B flood test barnyardgrass; format: in vivo, Echinochloa crus-galli
Method in brief: as §2

giant foxtail = test: Test B pre/postemergence giant foxtail; format: in vivo, Setaria faberii
Method in brief: as §1

corn = test: Test B pre/postemergence corn; format: in vivo, Zea mays
Method in brief: as §1

sugar beet = test: Test B pre/postemergence sugar beet; format: in vivo, Beta vulgaris
Method in brief: as §1

blackgrass = test: Test B pre/postemergence blackgrass; format: in vivo, Alopecurus myosuroides
Method in brief: as §1

rape = test: Test B pre/postemergence rape; format: in vivo, Brassica napus
Method in brief: as §1

[1] = Postemergence, Rate 62 g/ha, scale 0 to 10, 0 is no effect, 10 is complete control
[2] = Postemergence, Rate 125 g/ha, scale of 0 to 10 where 0 is no effect and 10 is complete control
[3] = Preemergence, Rate 62 g/ha, scale of 0 to 10 where 0 is no effect and 10 is complete control
[4] = Preemergence, Rate 125 g/ha, scale of 0 to 10 where 0 is no effect and 10 is complete control
[5] = Preemergence, Rate 250 g/ha, scale 0 to 10 (0 no effect, 10 complete control)
[6] = Preemergence, Rate 500 g/ha, scale of 0 to 10 where 0 is no effect and 10 is complete control
[7] = Postemergence, Rate 250 g/ha, scale of 0 to 10, 0 is no effect, 10 is complete control
[8] = Postemergence, Rate 500 g/ha, scale of 0 to 10 where 0 is no effect and 10 is complete control
[9] = Rate 62 g/ha, flood test species, Pre-emergence, visual evaluation after twelve to sixteen days
[10] = Rate 125 g/ha, under heading Pre-emergence, flood test species, visual evaluation after twelve to sixteen days
[11] = Rate 250 g/ha, Pre-emergence (flood test species), scale 0 to 10, 0 is no effect, 10 is complete control
[12] = Rate 500 g/ha, Pre-emergence section of Table B, 0 to 10 scale (0 no effect, 10 complete control)

CC(C)N(C(=O)n1oc(=O)n(Cc2nnc(Cl)s2)c1=O)c1ccc(F)cc1 [Compound 646]
Plant response rating, Wild oats (wild oat; [1]): 0 | Wild oats plant response rating (wild oat; [2]): 0 | Wild oats plant response rating (wild oat; [3]): 0 | Wild oats plant response rating (wild oat; [4]): 0 | Plant response rating, Wild oats (wild oat; [5]): 0 | Plant response rating, Wild oats (wild oat; [6]): 0 | Plant response rating, Crabgrass (crabgrass; [1]): 0 | Crabgrass plant response rating (crabgrass; [2]): 0 | Crabgrass plant response rating (crabgrass; [7]): 0 | Plant response rating, Crabgrass (crabgrass; [8]): 1 | Crabgrass plant response rating (crabgrass; [4]): 0 | Plant response rating, Crabgrass (crabgrass; [5]): 0 | Plant response rating, Crabgrass (crabgrass; [6]): 0 | Plant response rating, Cocklebur (cocklebur; [1]): 0 | Cocklebur plant response rating (cocklebur; [2]): 0 | Cocklebur plant response rating (cocklebur; [7]): 0 | Plant response rating, Cocklebur (cocklebur; [8]): 0 | Cocklebur plant response rating (cocklebur; [3]): 0 | Cocklebur plant response rating (cocklebur; [4]): 0 | Plant response rating, Cocklebur (cocklebur; [5]): 0 | Plant response rating, Cocklebur (cocklebur; [6]): 0 | Plant response rating, S. Flatsedge (0 to 10 scale, 0 is no effect, 10 is complete control) (smallflower flatsedge; [9]): 0 | S. Flatsedge plant response rating (0 to 10 scale, 0 is no effect, 10 is complete control) (smallflower flatsedge; [10]): 0 | S. Flatsedge plant response rating (smallflower flatsedge; [11]): 0 | S. Flatsedge plant response rating (smallflower flatsedge; [12]): 0 | Plant response rating, Bedstraw (bedstraw; [1]): 0 | Bedstraw plant response rating (bedstraw; [7]): 0 | Bedstraw plant response rating (bedstraw; [3]): 0 | Plant response rating, Redroot pigweed (pigweed; [1]): 0 | Redroot pigweed plant response rating (pigweed; [2]): 0 | Redroot pigweed plant response rating (pigweed; [3]): 0 | Redroot pigweed plant response rating (pigweed; [4]): 0 | Plant response rating, Redroot pigweed (pigweed; [5]): 0 | Plant response rating, Redroot pigweed (pigweed; [6]): 0 | Plant response rating, Velvetleaf (velvetleaf; [1]): 0 | Velvetleaf plant response rating (velvetleaf; [2]): 0 | Velvetleaf plant response rating (velvetleaf; [3]): 0 | Velvetleaf plant response rating (velvetleaf; [4]): 0 | Plant response rating, Velvetleaf (velvetleaf; [5]): 0 | Plant response rating, Velvetleaf (velvetleaf; [6]): 0 | Plant response rating, Rice (0 to 10 scale, 0 is no effect, 10 is complete control) (rice; [9]): 0 | Rice plant response rating (0 to 10 scale, 0 is no effect, 10 is complete control) (rice; [10]): 0 | Rice plant response rating (rice; [11]): 0 | Rice plant response rating (rice; [12]): 0 | Plant response rating, B. signalgrass (surinam grass; [1]): 0 | Plant response rating, B. signalgrass (surinam grass; [2]): 0 | B. signalgrass plant response rating (surinam grass; [7]): 0 | Plant response rating, B. signalgrass (surinam grass; [8]): 0 | B. signalgrass plant response rating (surinam grass; [3]): 0 | B. signalgrass plant response rating (surinam grass; [4]): 0 | Plant response rating, B. signalgrass (surinam grass; [5]): 0 | Plant response rating, B. signalgrass (surinam grass; [6]): 0 | Plant response rating, Morningglory (morningglory; [1]): 0 | Morningglory plant response rating (morningglory; [2]): 0 | Morningglory plant response rating (morningglory; [7]): 0 | Plant response rating, Morningglory (morningglory; [8]): 4 | Morningglory plant response rating (morningglory; [3]): 0 | Morningglory plant response rating (morningglory; [4]): 0 | Plant response rating, Morningglory (morningglory; [5]): 0 | Plant response rating, Morningglory (morningglory; [6]): 0 | Plant response rating, Barnyardgrass (0 to 10 scale, 0 is no effect, 10 is complete control) (bamyardgrass; [9]): 0 | Barnyardgrass plant response rating (0 to 10 scale, 0 is no effect, 10 is complete control) (bamyardgrass; [10]): 0 | Barnyardgrass plant response rating (bamyardgrass; [11]): 0 | Barnyardgrass plant response rating (bamyardgrass; [12]): 0 | Plant response rating, Giant foxtail (giant foxtail; [1]): 0 | Giant foxtail plant response rating (giant foxtail; [2]): 0 | Giant foxtail plant response rating (giant foxtail; [7]): 0 | Plant response rating, Giant foxtail (giant foxtail; [8]): 0 | Giant foxtail plant response rating (giant foxtail; [3]): 0 | Giant foxtail plant response rating (giant foxtail; [4]): 0 | Plant response rating, Giant foxtail (giant foxtail; [5]): 0 | Plant response rating, Giant foxtail (giant foxtail; [6]): 0 | Plant response rating, Corn (corn; [1]): 0 | Corn plant response rating (corn; [2]): 0 | Corn plant response rating (corn; [7]): 0 | Plant response rating, Corn (corn; [8]): 0 | Corn plant response rating (corn; [3]): 0 | Corn plant response rating (corn; [4]): 0 | Plant response rating, Corn (corn; [5]): 0 | Plant response rating, Corn (corn; [6]): 0 | Plant response rating, Sugarbeets (sugar beet; [1]): 0 | Sugarbeets plant response rating (sugar beet; [2]): 0 | Sugarbeets plant response rating (sugar beet; [3]): 0 | Sugarbeets plant response rating (sugar beet; [4]): 0 | Plant response rating, Sugarbeets (sugar beet; [5]): 0 | Plant response rating, Sugarbeets (sugar beet; [6]): 0 | Plant response rating, Blackgrass (blackgrass; [1]): 0 | Blackgrass plant response rating (blackgrass; [2]): 0 | Blackgrass plant response rating (blackgrass; [7]): 0 | Plant response rating, Blackgrass (blackgrass; [8]): 0 | Blackgrass plant response rating (blackgrass; [3]): 0 | Blackgrass plant response rating (blackgrass; [4]): 0 | Plant response rating, Blackgrass (blackgrass; [5]): 0 | Plant response rating, Blackgrass (blackgrass; [6]): 0 | Plant response rating, Rape (rape; [1]): 0 | Rape plant response rating (rape; [2]): 0 | Plant response rating, Rape (rape; [8]): 0 | Rape plant response rating (rape; [3]): 0 | Rape plant response rating (rape; [4]): 0 | Plant response rating, Rape (rape; [5]): 0 | Plant response rating, Rape (rape; [6]): 0
